Reference: ChEMBL document CHEMBL3351934, “Monocyclic 4-amino-6-(phenylamino)-1,3,5-triazines as inhibitors of human DNA topoisomerase IIα” (Bioorg Med Chem Lett, 2014)
Activity calls are given as the source filed them. No cut-off for these calls is given here.

What was measured:
[1] = molecular target: DNA topoisomerase 2-alpha (Homo sapiens, UniProt P11388); assay: Inhibition of human DNA topoisomerase 2alpha using plasmid pNO1 substrate incubated at 37 degC for 30 mins by fluorimetry
[2] = Cytotoxic activity against HUVEC assessed as reduction in cell viability at 200 uM after 24 hrs by MTT assay; type: cell-based; details: human, HUVEC cells; read-out: INH
[3] = tested on: MCF7; assay: Cytotoxic activity against human MCF7 cells assessed as reduction in cell viability after 24 hrs by MTT assay; details: MCF7, 24 h
[4] = tested on: HepG2; assay: Cytotoxic activity against human HepG2 cells assessed as reduction in cell viability at 6.25 to 25 after 24 hrs by MTT assay; type: functional, cell-based
[5] = tested on: MCF7; assay: Cytotoxic activity against human MCF7 cells assessed as reduction in cell viability at 200 uM after 24 hrs by MTT assay; type: functional, cell-based
[6] = tested on: HepG2; assay: Cytotoxic activity against human HepG2 cells assessed as reduction in cell viability at 200 uM after 24 hrs by MTT assay; type: functional; details: HepG2, 24 h
[7] = tested on: MCF7; assay: Cytotoxic activity against human MCF7 cells assessed as reduction in cell viability at 6.25 to 25 after 24 hrs by MTT assay; type: functional, cell-based
[8] = tested on: HUVEC; assay: Cytotoxic activity against HUVEC assessed as reduction in cell viability after 24 hrs by MTT assay; type: cell-based, Homo sapiens
[9] = tested on: HepG2; assay: Cytotoxic activity against human HepG2 cells assessed as reduction in cell viability after 24 hrs by MTT assay; details: HepG2, 24 h
[10] = tested on: HepG2; assay: Cytotoxic activity against human HepG2 cells assessed as reduction in cell viability at 50 to 100 uM after 24 hrs by MTT assay; type: functional, cell-based

Sequence of DNA topoisomerase 2-alpha (P11388 whole entry): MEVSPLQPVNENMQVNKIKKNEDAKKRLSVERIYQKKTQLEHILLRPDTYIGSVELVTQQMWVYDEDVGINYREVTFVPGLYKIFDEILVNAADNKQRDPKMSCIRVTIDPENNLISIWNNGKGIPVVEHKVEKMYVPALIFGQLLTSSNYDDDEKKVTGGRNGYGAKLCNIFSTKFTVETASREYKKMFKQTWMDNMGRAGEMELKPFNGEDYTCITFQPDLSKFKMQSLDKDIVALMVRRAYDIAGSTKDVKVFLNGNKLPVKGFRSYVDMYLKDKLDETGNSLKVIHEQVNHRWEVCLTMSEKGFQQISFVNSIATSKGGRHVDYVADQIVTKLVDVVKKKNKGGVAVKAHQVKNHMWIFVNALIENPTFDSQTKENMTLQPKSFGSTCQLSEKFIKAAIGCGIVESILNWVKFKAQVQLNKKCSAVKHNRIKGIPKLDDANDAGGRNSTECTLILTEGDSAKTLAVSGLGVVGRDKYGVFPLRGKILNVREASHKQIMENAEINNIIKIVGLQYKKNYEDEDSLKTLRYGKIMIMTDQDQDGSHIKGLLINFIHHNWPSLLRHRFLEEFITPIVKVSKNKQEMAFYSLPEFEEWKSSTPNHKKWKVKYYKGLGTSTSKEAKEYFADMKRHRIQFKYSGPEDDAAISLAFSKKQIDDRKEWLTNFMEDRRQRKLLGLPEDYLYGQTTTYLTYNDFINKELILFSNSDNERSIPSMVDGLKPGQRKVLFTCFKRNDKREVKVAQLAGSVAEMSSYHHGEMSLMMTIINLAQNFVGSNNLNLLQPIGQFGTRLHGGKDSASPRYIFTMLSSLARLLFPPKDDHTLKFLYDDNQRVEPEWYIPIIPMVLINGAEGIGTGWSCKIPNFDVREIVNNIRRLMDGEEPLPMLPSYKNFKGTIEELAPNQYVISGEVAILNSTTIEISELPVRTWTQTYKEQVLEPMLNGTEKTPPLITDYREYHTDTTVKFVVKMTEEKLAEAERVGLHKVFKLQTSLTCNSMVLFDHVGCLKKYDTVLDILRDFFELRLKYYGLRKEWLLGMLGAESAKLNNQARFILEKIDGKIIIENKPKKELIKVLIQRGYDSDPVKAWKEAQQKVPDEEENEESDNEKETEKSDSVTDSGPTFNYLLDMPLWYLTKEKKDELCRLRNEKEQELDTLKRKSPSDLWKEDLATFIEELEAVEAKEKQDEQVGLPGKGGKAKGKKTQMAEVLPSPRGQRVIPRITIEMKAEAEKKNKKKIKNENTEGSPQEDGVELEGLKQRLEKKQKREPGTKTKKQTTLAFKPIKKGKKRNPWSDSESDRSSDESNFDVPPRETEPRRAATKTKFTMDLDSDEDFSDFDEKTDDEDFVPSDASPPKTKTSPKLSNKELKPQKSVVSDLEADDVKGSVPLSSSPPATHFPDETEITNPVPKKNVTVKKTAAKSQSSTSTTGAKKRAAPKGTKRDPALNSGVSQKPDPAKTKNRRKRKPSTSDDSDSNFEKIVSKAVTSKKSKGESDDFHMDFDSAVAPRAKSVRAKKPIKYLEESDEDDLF

| IC50 [1] | Compound | also measured |
| --- | --- | --- |
| > 1000 µM | Cc1cc(O)nc(NCCCn2ccnc2)n1 | – |
| > 1000 µM | Cc1cc(O)nc(N/N=C\c2cccnc2)n1 | – |
| > 1000 µM | COc1cccc(C(=O)NCc2nnc(S)n2-c2ccc(Cl)c(Cl)c2)c1 | – |
| > 1000 µM | C[C@H](Sc1nc(N)nc(N)n1)C(=O)N1CCOCC1 | – |
| > 1000 µM | Cc1cc(CNc2ncccc2C(N)=O)ccn1 | – |
| > 1000 µM | Nc1nc(CSc2nnnn2C2CCCC2)nc(Nc2ccc(F)cc2)n1 | – |
| > 1000 µM | Nc1nc(N)nc(CSc2nnc(-c3cccnc3)o2)n1 | – |
| > 1000 µM | COc1ccc(Nc2nc(N)nc(CSC(=S)N3CCCCC3)n2)cc1 | – |
| > 1000 µM | COc1cccc(C(=O)NCc2n[nH]c(=S)n2-c2ccccc2Cl)c1 | – |
| > 1000 µM | O=C(NCc1n[nH]c(=S)n1-c1ccccc1)c1ccccc1C(F)(F)F | – |
| > 1000 µM | Nc1nc(CSC2CCCC2)nc(Nc2ccc(F)cc2)n1 | – |
| > 1000 µM | Nc1nc(CSc2nnc(C3CC3)o2)nc(Nc2ccc(F)cc2)n1 | – |
| > 1000 µM | CCCn1ccnc1SCc1nc(N)nc(Nc2ccc(F)cc2)n1 | – |
| > 1000 µM | C[C@H](Sc1nc(N)cc(O)n1)C(=O)N1CCOCC1 | – |
| > 1000 µM | Cc1cc(O)nc(N/N=C\c2ccncc2)n1 | – |
| > 1000 µM | O=C(NCc1n[nH]c(=S)n1-c1ccc(F)cc1)c1ccccc1F | – |
| 139 µM | Nc1nc(CSC(=S)N2CCOCC2)nc(Nc2ccc(F)cc2)n1 | – |
| 229 µM | COc1ccc(Nc2nc(N)nc(CSC(=S)N3CCOCC3)n2)cc1 | cytotoxicity at 24 h, 200 µM [2]: 90%; EC50 [3]: 129 µM; inhibition [4]: inactive; inhibition [5]: Active; inhibition at 200 µM [6]: 90%; inhibition [7]: inactive; EC50 ([8]; Homo sapiens, HUVEC): 122 µM; inhibition (INH) ([8]; human, huvec): Dose-dependent effect; EC50 [9]: 20.5 µM; inhibition [10]: Active |
| > 1000 µM | Cn1nnnc1SCc1nc(N)nc(Nc2ccc(F)cc2)n1 | – |
| > 1000 µM | CN(C(=S)SCc1nc(N)nc(Nc2ccc(F)cc2)n1)C1CCCCC1 | – |
| > 1000 µM | COc1ccc(CNc2ncccc2C(N)=O)cc1OC | – |
| > 1000 µM | Cc1cc(CNc2nc(C)ccc2C(N)=O)ccn1 | – |
| 337 µM | Nc1nc(CSc2nnn[nH]2)nc(Nc2ccc(F)cc2)n1 | – |
| > 1000 µM | CN1CCN(C(=S)SCc2nc(N)nc(Nc3ccc(F)cc3)n2)CC1 | – |
| 85 µM | Nc1nc(SCCc2ccccc2)c2nc[nH]c2n1 | – |
| > 1000 µM | Cc1cc(CNc2nc3c(cc2C(N)=O)CCC3)ccn1 | – |
